Legend:
Assay in all cases: relative viability (nuclei count vs DMSO), 5 days (fraction); higher = more cells survive
Zosuquidar + Palbociclib = compound: O[C@@H](COc1cccc2ncccc12)CN1CCN([C@@H]2c3ccccc3[C@@H]3[C@H](c4ccccc42)C3(F)F)CC1 [Zosuquidar] + CC(=O)c1c(C)c2cnc(Nc3ccc(N4CCNCC4)cn3)nc2n(C2CCCC2)c1=O [Palbociclib] (partner 0.5 µM)
Method in brief: (§1)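 Cells from lung cancer lines were seeded into 1536-well plates and, one day later, dosed by pin tool. Treatments were either a single drug or a fixed dose of an anchor drug with five library-drug doses (not always all listed) in √10 steps. After 5 days, nuclei were stained in a one-step fixation (final 0.05% Triton X-100, 1% formaldehyde, 1 ug/ml Hoechst) and counted on 4× images, and relative viability is the treated-to-vehicle nuclei ratio, as the median of duplicate plates.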

Zosuquidar + Vorinostat = compound: O[C@@H](COc1cccc2ncccc12)CN1CCN([C@@H]2c3ccccc3[C@@H]3[C@H](c4ccccc42)C3(F)F)CC1 [Zosuquidar] + O=C(CCCCCCC(=O)Nc1ccccc1)NO [Vorinostat] (partner 1 µM)
Method in brief: as §1

[1] = compound: COc1cc2nccc(Oc3ccc(NC(=O)C4(C(=O)Nc5ccc(F)cc5)CC4)cc3)c2cc1OC [Cabozantinib] + Nc1ncn([C@H]2C[C@H](O)[C@@H](CO)O2)c(=O)n1 [Decitabine] (partner 2 µM)
Method in brief: as §1

Cabozantinib + Alpelisib = compound: COc1cc2nccc(Oc3ccc(NC(=O)C4(C(=O)Nc5ccc(F)cc5)CC4)cc3)c2cc1OC [Cabozantinib] + Cc1nc(NC(=O)N2CCC[C@H]2C(N)=O)sc1-c1ccnc(C(C)(C)C(F)(F)F)c1 [Alpelisib] (partner 2 µM)
Method in brief: as §1

Cell Line | relative viability (Zosuquidar + Palbociclib; first compound 0.01 µM) | relative viability (Zosuquidar + Palbociclib; first compound 0.03162 µM) | relative viability (Zosuquidar + Palbociclib; first compound 0.1 µM) | relative viability (Zosuquidar + Palbociclib; first compound 0.3162 µM) | relative viability (Zosuquidar + Palbociclib; first compound 1 µM) | relative viability (Zosuquidar + Vorinostat; first compound 0.01 µM) | relative viability (Zosuquidar + Vorinostat; first compound 0.03162 µM) | relative viability (Zosuquidar + Vorinostat; first compound 0.1 µM) | relative viability (Zosuquidar + Vorinostat; first compound 0.3162 µM) | relative viability (Zosuquidar + Vorinostat; first compound 1 µM) | relative viability ([1]; first compound 0.02 µM) | relative viability ([1]; first compound 0.06325 µM) | relative viability ([1]; first compound 0.2 µM) | relative viability ([1]; first compound 0.6325 µM) | relative viability ([1]; first compound 2 µM) | relative viability (Cabozantinib + Alpelisib; first compound 0.02 µM) | relative viability (Cabozantinib + Alpelisib; first compound 0.06325 µM) | relative viability (Cabozantinib + Alpelisib; first compound 0.2 µM) | relative viability (Cabozantinib + Alpelisib; first compound 0.6325 µM) | relative viability (Cabozantinib + Alpelisib; first compound 2 µM)
NCI-H2126 | 0.349 | 0.339 | 0.351 | 0.341 | 0.351 | 0.768 | 0.862 | 0.478 | 0.757 | 0.891 | 0.531 | 0.546 | 0.618 | 0.643 | 0.59 | 0.798 | 0.764 | 0.73 | 0.755 | 0.765
LC-2-ad | 0.468 | 0.465 | 0.492 | 0.493 | 0.486 | 0.681 | 0.774 | 0.722 | 0.683 | 0.674 | 0.814 | 0.811 | 0.772 | 0.633 | 0.539 | 0.869 | 0.976 | 0.834 | 0.659 | 0.45
SW 1573 | 0.44 | 0.4 | 0.541 | 0.405 | 0.372 | 0.584 | 0.831 | 1.23 | 0.851 | 0.928 | 0.476 | 0.573 | 0.519 | 0.536 | 0.416 | 1.02 | 0.719 | 0.77 | 0.792 | 0.651
EBC-1 | – | – | – | – | – | – | – | – | – | – | – | – | – | – | – | 0.718 | 0.931 | 0.208 | 0.185 | 0.22
